This passage reports IC50 and Ki results from ChEMBL document CHEMBL1147702, “N-Benzylbenzamides: a new class of potent tyrosinase inhibitors” (Bioorg Med Chem Lett, 2006).

In the experiment the target is T1, Tyrosinase (Agaricus bisporus, UniProt O42713).
T1 sequence (O42713 whole entry): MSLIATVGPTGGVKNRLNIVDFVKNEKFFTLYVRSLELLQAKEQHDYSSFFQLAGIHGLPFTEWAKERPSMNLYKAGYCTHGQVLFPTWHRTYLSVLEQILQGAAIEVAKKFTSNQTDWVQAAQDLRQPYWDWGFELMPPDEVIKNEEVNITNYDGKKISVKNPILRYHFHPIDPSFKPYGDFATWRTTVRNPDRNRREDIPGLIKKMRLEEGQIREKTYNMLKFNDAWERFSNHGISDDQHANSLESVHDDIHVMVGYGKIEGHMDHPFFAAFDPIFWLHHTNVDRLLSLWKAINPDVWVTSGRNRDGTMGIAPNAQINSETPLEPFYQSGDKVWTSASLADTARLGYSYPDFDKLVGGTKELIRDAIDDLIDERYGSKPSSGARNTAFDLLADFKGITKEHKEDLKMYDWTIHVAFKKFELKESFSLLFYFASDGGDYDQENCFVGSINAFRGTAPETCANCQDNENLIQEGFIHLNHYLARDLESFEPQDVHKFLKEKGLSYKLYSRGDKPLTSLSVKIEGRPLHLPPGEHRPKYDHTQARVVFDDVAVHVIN
Description: Inhibition of mushroom tyrosinase
Take `O=C(NCc1ccccc1)c1ccc(O)c(O)c1`: the IC50 was more than 2000 µM.
`O=C(NCc1ccccc1)c1ccccc1`: the IC50 was determined as 1990 µM.
`O=C(NCc1ccc(O)cc1)c1cc(O)c(O)c(O)c1` came in with an IC50 of 1180 µM.
`O=C(NCc1ccc(O)cc1)c1ccc(O)c(O)c1` had a half-maximal inhibitory concentration (IC50) of more than 2000 µM.
Consider `O=C(NCc1ccc(O)cc1O)c1cc(O)c(O)c(O)c1`, for which the IC50 amounted to 17 µM.
Same read-out and setting: the same measure for `O=C(NCc1ccccc1)c1ccc(O)cc1O`: 1660 µM; for `O=C(NCc1cc(O)c(O)c(O)c1)c1cc(O)c(O)c(O)c1`: 555 µM.
Same read-out and setting: the value for `O=C(NCc1ccc(O)cc1O)c1ccc(O)cc1O` was 29 µM; that for `O=C(NCc1ccccc1)c1cc(O)c(O)c(O)c1` was 780 µM; that for `O=C(NCc1cc(O)c(O)c(O)c1)c1ccc(O)c(O)c1` was 280 µM.
`O=C(NCc1ccc(O)cc1O)c1cc(O)cc(O)c1` returned an IC50 of 2.2 µM and a Ki of 1.3 µM.
Turning to `O=C(NCc1ccc(O)cc1)c1cc(O)cc(O)c1`, the midpoint of inhibition, the IC50, lay at 710 µM.
Regarding `O=C(NCc1ccc(O)cc1)c1ccc(O)cc1O`, the IC50 came out at 1820 µM.
Take `O=C(NCc1cc(O)c(O)c(O)c1)c1ccc(O)cc1O`: the IC50 is 550 µM.
Compound `O=C(NCc1cc(O)c(O)c(O)c1)c1cc(O)cc(O)c1` returned an IC50 of 705 µM.
The compound `O=C(NCc1ccc(O)cc1O)c1ccc(O)c(O)c1` had an IC50 of 11 µM.
Same read-out and setting: the same measure for `O=C(NCc1ccccc1)c1cc(O)cc(O)c1`: 700 µM.
